Data from PubChem BioAssay (NCI).
“And” between values parts separate entries of the source, which are not always exact repeats. Identical values can stand only once.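 Protocol summary: plate cells (96-well), add compound at 5 concentrations, incubate 48 h, interpolate endpoints linearly. The concentration for 50% growth inhibition is given as GI50. TGI denotes the concentration required for complete inhibition of growth.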

Legend:
Test in all cases: inhibition of tumour cell growth, NCI panel, 48 h
[1] = tested on: NCI-H23 lung
[2] = tested on: K-562 leukemia
[3] = tested on: SF-539 CNS
[4] = tested on: RPMI-8226 leukemia
[5] = tested on: SF-295 CNS
[6] = tested on: COLO 205 colon
[7] = tested on: SW-620 colon
[8] = tested on: SNB-75 CNS
[9] = tested on: MDA-MB-435
[10] = tested on: UACC-62 melanoma

Work on `COc1ccc2nc3cc([N+](=O)[O-])ccc3c(NCCCN(CCO)CCO)c2c1` yielded a GI50 [1] of 6430 nM, a TGI [1] of 14.2 µM and a GI50 [2] of 1940 nM. For the same compound, the TGI [2] was 4.77 µM, the GI50 [3] was 7.63 µM and the TGI [3] was 20.3 µM. The GI50 [4] was 2.28 µM, the TGI [4] was 8.9 µM and the GI50 [5] was 9000 nM. For the same compound, the TGI [5] was 22.3 µM, the GI50 [6] was 2.64 µM and the TGI [6] was 9.12 µM. For the same compound, the GI50 [7] was 3.15 µM, the TGI [7] was 12.3 µM and the GI50 [8] was 10.9 µM. For the same compound, the TGI [8] was 22.9 µM, the GI50 [9] was 2270 nM and the TGI [9] was 5.67 µM. It also gave a GI50 [10] of 3340 nM and a TGI [10] of 11.6 µM.

With `Clc1ccc(C(c2ccc(Cl)cc2)N2CCNCC2)cc1` the TGI [1] was 21.6 µM, the TGI [2] was 3.76 µM and the TGI [3] was 3.02 µM. For the same compound, the TGI [4] was 4.66 µM, the TGI [5] was 5.74 µM and the TGI [6] was 4.28 µM. The TGI [7] was 4.96 µM, the TGI [8] was 5.78 µM and the TGI [9] was 3.63 µM. It also gave a TGI [10] of 3.55 µM.

`C[n+]1c2ccccc2c(Nc2ccc(NS(=O)(=O)CCCCN=C(N)N)cc2)c2ccc(N)cc21` gave a GI50 [1] of 152 nM, a TGI [1] of 90.4 µM and a GI50 [2] of 2600 nM. The TGI [2] was > 100 µM, the GI50 [3] was 3.37 µM and the TGI [3] was > 100 µM. The GI50 [4] was 1.43 µM, the TGI [4] was 23.3 µM and the GI50 [5] was 78.5 nM. The TGI [5] was > 100 µM, the GI50 [6] was 1.67 µM and the TGI [6] was > 100 µM. For the same compound, the GI50 [7] was 4.88 µM, the TGI [7] was > 100 µM and the GI50 [8] was 1.48 µM. For the same compound, the TGI [8] was > 100 µM, the GI50 [9] was 20400 nM and the TGI [9] was > 100 µM. For the same compound, the GI50 [10] was 917 nM and the TGI [10] was 22.4 µM.

`COc1cc(F)cc([C@@H](CO)NC(=O)[C@@H](C)N2Cc3ccc(-c4nc(NC5CCOCC5)ncc4Cl)cc3C2=O)c1` was tested, and the GI50 [1] was < 13.3 nM, the TGI [1] was 20.2 µM and the GI50 [2] was 536 nM. For the same compound, the TGI [2] was > 100 µM, the GI50 [3] was 5.33 µM and the TGI [3] was 33.9 µM. The GI50 [4] was 1.83 µM, the TGI [4] was 38.1 µM and the GI50 [5] was 14700 nM. For the same compound, the TGI [5] was 85.4 µM, the GI50 [6] was < 0.01 µM and the TGI [6] was 2.37 µM. The GI50 [7] was 0.0761 µM, the TGI [7] was > 100 µM and the GI50 [8] was 12.5 µM. For the same compound, the TGI [8] was 54 µM, the GI50 [9] was 34.7 nM and the TGI [9] was 31.8 µM. For the same compound, the GI50 [10] was < 10 nM and the TGI [10] was 0.0248 µM.

With `NC(=S)N/N=C/c1ccc(O)cn1` the GI50 [1] was 3480 nM, the GI50 [2] was 12300 nM and 7250 nM and the TGI [2] was 55.2 µM and 439 µM. For the same compound, the GI50 [3] was 4.27 µM and 2.77 µM, the TGI [3] was 23.6 µM and 10.9 µM and 17.2 µM and the GI50 [4] was 22.3 µM and 6.64 µM. For the same compound, the TGI [4] was > 1500 µM and 662 µM, the GI50 [5] was 33700 nM and 31700 nM and the TGI [5] was 113 µM and 111 µM. For the same compound, the GI50 [6] was 35.8 µM and 55 µM and 8.96 µM, the TGI [6] was > 1500 µM and 655 µM and the GI50 [7] was 27.4 µM and 13.2 µM. The TGI [7] was > 1500 µM, the GI50 [8] was 13.8 µM and the TGI [8] was 60.4 µM and 227 µM. For the same compound, the TGI [9] was > 1130 µM, the GI50 [10] was 2830 nM and 3130 nM and 1830 nM and the TGI [10] was 10.7 µM and 13.1 µM and 37.3 µM.

For `COc1ccc(-c2nn(-c3cccc(Cl)c3)cc2-c2c(C#N)c(=O)n3[nH]c(-c4ccc(C)cc4)nc3c2C#N)cc1`, the GI50 [1] was 3180 nM, the TGI [1] was 10.6 µM and the GI50 [2] was 1430 nM. The TGI [2] was > 50 µM, the GI50 [3] was 1.28 µM and the TGI [3] was 3.61 µM. The GI50 [4] was 4.57 µM, the TGI [4] was 33 µM and the GI50 [5] was 1200 nM. The TGI [5] was 4.14 µM, the GI50 [6] was 2.32 µM and the TGI [6] was 8.15 µM. It also gave a GI50 [7] of 0.521 µM, a TGI [7] of 2.73 µM and a GI50 [8] of 0.828 µM. For the same compound, the TGI [8] was 2.4 µM, the GI50 [9] was 1480 nM and the TGI [9] was 7.9 µM. For the same compound, the GI50 [10] was 2540 nM and the TGI [10] was 10.2 µM.

Work on `O=C(O)c1ccc2c3c(ncnc13)-c1ccccc1C2=O` yielded a GI50 [1] of 796 nM, a TGI [1] of 3.05 µM and a GI50 [2] of 42100 nM. For the same compound, the TGI [2] was > 100 µM, the GI50 [3] was 8.5 µM and the TGI [3] was > 100 µM. For the same compound, the GI50 [4] was 51.3 µM, the TGI [4] was > 88.7 µM and the GI50 [5] was 2280 nM. For the same compound, the TGI [5] was > 30.6 µM, the GI50 [6] was 3.25 µM and the TGI [6] was 16.7 µM. The GI50 [7] was 4.78 µM, the TGI [7] was > 100 µM and the GI50 [8] was 3.21 µM. The TGI [8] was > 21 µM, the GI50 [9] was 1720 nM and the TGI [9] was 3.59 µM. For the same compound, the GI50 [10] was 2440 nM and the TGI [10] was 6.11 µM.

In the case of `c1ccc(Nn2c(CCCCCCCCc3nnc(COc4ccccc4)n3Nc3ccccc3)nnc2COc2ccccc2)cc1`, the GI50 [1] is reported as 37200 nM and 76800 nM, the TGI [1] is reported as > 300 µM and the GI50 [2] is reported as 3710 nM and 2170 nM. The TGI [2] was > 300 µM, the GI50 [3] was 7.23 µM and the TGI [3] was > 60.5 µM and 20 µM. For the same compound, the TGI [4] was > 300 µM, the GI50 [5] was 1240 nM and 7510 nM and the GI50 [6] was 3.18 µM and 19.6 µM. For the same compound, the TGI [6] was 8.81 µM and 77.1 µM, the GI50 [7] was 9.55 µM and 11.8 µM and the TGI [7] was > 300 µM. The GI50 [8] was 48.8 µM and 49.2 µM, the TGI [8] was > 300 µM and the GI50 [9] was 5340 nM and 11900 nM. The TGI [9] was > 300 µM, the GI50 [10] was 1280 nM and the TGI [10] was > 40.8 µM and 68 µM.

`O=c1oc(-c2ccccc2)cc2cccc(O)c12` was tested, and the GI50 [1] was 19600 nM, the TGI [1] was 61.5 µM and the GI50 [2] was > 67300 nM. For the same compound, the TGI [2] was > 100 µM, the GI50 [3] was 0.927 µM and the TGI [3] was 5.21 µM. The GI50 [4] was 34 µM, the TGI [4] was > 100 µM and the GI50 [5] was 28300 nM. For the same compound, the TGI [5] was > 83.9 µM, the GI50 [6] was > 100 µM and the TGI [6] was > 100 µM. The GI50 [7] was 58 µM, the TGI [7] was > 100 µM and the GI50 [8] was 24.4 µM. The TGI [8] was > 62.6 µM, the GI50 [9] was 69000 nM and the TGI [9] was > 100 µM. For the same compound, the GI50 [10] was 24500 nM and the TGI [10] was > 64.3 µM.

For `CCOC(=O)NC1=C(N2CC2)C(=O)C(NC(=O)OCC)=C(N2CC2)C1=O`, the GI50 [1] was 2870 nM and 1610 nM, the TGI [1] was 15.6 µM and 14.1 µM and 7.55 µM and the GI50 [2] was 6130 nM. The TGI [2] was 20.8 µM and 38.3 µM and 17 µM, the GI50 [3] was 1.57 µM and the TGI [3] was 9.51 µM and 9.15 µM and 27.5 µM. The GI50 [4] was 9.3 µM, the TGI [4] was 19 µM and 20.2 µM and 10.6 µM and the GI50 [5] was 1860 nM. For the same compound, the TGI [5] was 25 µM and 23.3 µM and 31.4 µM, the GI50 [6] was 15.1 µM and 8.56 µM and the TGI [6] was 25 µM and 33 µM and 51.1 µM. The GI50 [7] was 5.99 µM and 5.69 µM, the TGI [7] was 24.6 µM and 26.1 µM and 19.2 µM and the GI50 [8] was 9.24 µM. For the same compound, the TGI [8] was 23.2 µM and 29.9 µM and 52 µM, the TGI [9] was 7.28 µM and the GI50 [10] was 1750 nM. For the same compound, the TGI [10] was 12 µM and 4.37 µM and 1.74 µM.

`CSc1n(Cc2ccc3ccccc3c2)c(C)c[n+]1Cc1ccc2ccccc2c1` gave a GI50 [1] of 385 nM, a TGI [1] of 1.64 µM and a GI50 [2] of 414 nM. The TGI [2] was 2.36 µM, the GI50 [3] was 0.797 µM and the TGI [3] was 2.12 µM. It also gave a GI50 [4] of 0.287 µM, a TGI [4] of 1.36 µM and a GI50 [5] of 1340 nM. The TGI [5] was 2.69 µM, the GI50 [6] was 0.352 µM and the TGI [6] was 1.34 µM. The GI50 [7] was 0.852 µM, the TGI [7] was 2.26 µM and the GI50 [8] was 0.342 µM. It also gave a TGI [8] of 1.49 µM, a GI50 [9] of 436 nM and a TGI [9] of 1.57 µM. The GI50 [10] was 519 nM and the TGI [10] was 1.82 µM.

With `O=C(NCCN1CCC(O)CC1)c1cc2c(o1)C(=O)c1ccccc1C2=O` the GI50 [1] was 53.6 nM, the TGI [1] was 0.257 µM and the GI50 [2] was 378 nM. It also gave a GI50 [3] of 0.211 µM, a TGI [3] of 0.471 µM and a GI50 [4] of 1.58 µM. For the same compound, the TGI [4] was 4.72 µM, the GI50 [5] was 149 nM and the TGI [5] was 0.288 µM. The GI50 [6] was 0.078 µM, the TGI [6] was 0.228 µM and the GI50 [7] was 0.31 µM. The TGI [7] was 1.05 µM, the GI50 [8] was 0.323 µM and the TGI [8] was 0.797 µM. The GI50 [9] was 177 nM, the TGI [9] was 0.324 µM and the GI50 [10] was 164 nM. It also gave a TGI [10] of 0.308 µM.

For `O=C(O)C1C(=O)Oc2c(cccc2[N+](=O)[O-])C1O` (centres undefined), the TGI [1] was > 100 µM, the TGI [2] was > 100 µM and the TGI [3] was > 100 µM. The TGI [4] was > 100 µM, the TGI [5] was > 100 µM and the TGI [6] was > 100 µM. For the same compound, the TGI [7] was > 100 µM, the TGI [8] was > 100 µM and the TGI [9] was > 100 µM. For the same compound, the TGI [10] was > 100 µM.
